Test results: patent publication US20020026069A1 (priority 1998, published 2002)

What was measured:
[1] = Stability of the solid on storage or heating; assay type: physicochemical
Hygroscopicity = assay type: physicochemical
Particle size = assay type: physicochemical; settings: free base obtained by this process
Solubility = assay type: physicochemical
[2] = Stability in aqueous solution; assay type: physicochemical; settings: pH 2-3
[3] = incubation for 6 months at 40° C.; composition produced by the Milman process (U.S. Pat. No. 5,354,885); cited from earlier work
[4] = cited from earlier work
[5] = cited from earlier work; remark: listed apart in the source
[6] = synthesized by the methods of GB 1,364,505 / U.S. Pat. No. 3,803,120
[7] = free base obtained by this process

| stability [1, 6] | hygroscopicity (Hygroscopicity; [6]) | stability [1, 7] | sensitivity to heat ([1]; produces cyclic levodopa and levodopa-levodopa ethyl ester) | hygroscopicity (Hygroscopicity; [7]) | average particle size (Particle size) | particle size range (Particle size) | solubility in water (Solubility) | stability in the solution [2] | SMILES | L-DOPA ethyl ester remaining after incubation [3] | solubility [4] | half-life in vivo [5] |
| --- | --- | --- | --- | --- | --- | --- | --- | --- | --- | --- | --- | --- |
| not stable | hygroscopic |  |  |  |  |  |  |  | CCOC(=O)[C@@H](N)Cc1ccc(O)c(O)c1.Cl [L-DOPA ethyl ester hydrochloride salt, L-DOPA ethyl ester hydrochloride, reference compound] |  |  |  |
| not stable |  | stable | very sensitive to heat | non-hygroscopic | less than 60 μ | 18-180 μ | soluble to a certain extent | stable | CCOC(=O)[C@@H](N)Cc1ccc(O)c(O)c1 [L-DOPA ethyl ester] | at least 97 % by weight |  |  |
|  |  |  |  |  |  |  |  |  | N[C@@H](Cc1ccc(O)c(O)c1)C(=O)O [L-DOPA] |  | very poor solubility | short half-life |
